From US9420770B2, “Methods of modulating thrombocytopenia and modified transgenic pigs” (Indiana University Research and Technology Corporation, priority 2009, dated 2016)

Columns and labels:
Format in all cases: cell-based, pig
LSEC = assay: High-throughput fluorescent 96-well phagocytosis assay (ELISA based fluorescent assay) with platelets and LSEC; details: compound at 5 mg/ml, 0.5 mg/ml or none, FIG. 9 panel B
Method: A high-throughput fluorescent 96-well phagocytosis assay was performed using human and baboon platelets and LSEC. The compounds of interest asialofeutin or feutin were added to the samples. Experiments were performed with reduced calcium or in the presence of the chelating agent, EDTA.

[1] = system: Domestic and GTKO/hDAF LSEC cultures; assay: Inhibition of platelet phagocytosis assay: fetuin / asialofetuin, CFSE-labeled human platelets; details: LSECs from domestic or GTKO/hDAF pigs; 0.5-20 μg/ml; FIG. 15 panel A
Method: Fetuin, a glycoprotein composed of sialic acid terminated galactose β1, −4 N-acetylglucosamine (Galβ) oligosaccharides, and asialofetuin, a derivative of fetuin lacking the terminal sialic acid saccharides and with exposed Galβ oligosaccharides were utilized to evaluate platelet binding. Domestic (n=2-5) and GTKO/hDAF (n=5) LSEC cultures were established. Cultures were incubated with 0.5, 2.5, 5, 10 or 20 μg/ml fetuin or asialofetuin. After incubations, CFSE-labeled human platelets were added to the cultures. Platelet binding and phagocytosis was measured using a spectromax plate reader. The percent of platelet binding was calculated.

porcine primary LSECs = assay: Platelet phagocytosis assay with siRNA treated LSECs; details: 48 hours after siRNA treatment, n=3
Method: Primary LSECs were cultured in black walled-clear bottomed, cell culture treated 96-well plates (approximately 100,000 cells/well). The plated cells were incubated at 37° C. and 5% CO2 for four, five or six days as indicated. Four million CFSE-labeled platelets were added to wells in 96 well plates containing primary LSEC and media. Plates were centrifuged at 2000×g to synchronize the wells. At predetermined time points, the incubations were stopped. Duplicate wells for each time point were washed with PBS three times. After washing, the cells were incubated with 4% paraformaldehyde-PBS solution for 20 minutes to fix the cells. The wells were washed with PBS. 50 μl PBS was placed in each well. After obtaining the timepoints, the plates were read for fluorescence using a Spectra Max M2e plate reader (Molecular Devices Co.) set to read 9 different points within each well. Wells with LSECs and without CFSE-labeled platelets were used to determine the auto-fluorescence of LSECs. Data points from at least three separate porcine LSEC experiments were averaged and the standard deviation was obtained.
siRNA sense and antisense oligos were designed to the mRNA sequence of ASGR1 (FIG. 17C). […] ASGR1 transcript levels were determined by quantitative PCR. ASGR1 protein levels were analyzed. […]

ASGR1 protein = assay: siRNA reduction of ASGR1: protein levels by immunoblotting; details: 48 hours after siRNA treatment
Method: LSECs were resuspended in Laemmli sample buffer with protease arrest (G-bioscience™, Maryland Heights Mo.). Samples were electrophoresed on SDS-polyacrylamide gels (SDS-PAGE). Polypeptides were transferred to membranes for immunoblot or lectin blot analysis. Membranes were blocked by incubation with 50% Odyssey blocking buffer (LI-COR Biosciences™, Lincoln Nebr.) in phosphate buffered saline (PBS) for approximately one hour. Membranes were incubated with anti-ASGR1 (Santa Cruz Biotechnologies™, Santa Cruz Calif.), anti-GAPDH (Millipore™, Billerica Mass., MAB374), anti-β-actin (Rockland Immunochemicals for Research, Gilbertsville Pa.), or anti-CD42b (Santa Cruz Biotechnologies™, SC-13467) according to the manufacturer's recommended protocol. Membranes were also incubated with ECA-biotin (EY Laboratories San Mateo Calif.) in a calcium containing buffer. Following primary antibody or lectin binding, membranes were washed. Membranes were incubated with the appropriate secondary antibody or streptavidin conjugated to either IRDye 800CW or IRDye680CW (LI-Cor Biosciences™). […] Protein bands were quantified by intensity using the LI-COR software.
(§1) siRNA sense and antisense oligos were designed to the mRNA sequence of ASGR1 (FIG. 17C). […] ASGR1 transcript levels were determined by quantitative PCR. ASGR1 protein levels were analyzed.

ASGR1 mRNA = assay: siRNA reduction of ASGR1: transcript levels by quantitative PCR; details: 48 hours after siRNA treatment
Method: RNA extraction was performed on cultured LSEC and tissues harvested from domestic and GTKO/hDAF pigs. Total RNA was extracted from LSEC and low-fiber tissues using the RNeasy Minikit (Qiagen, Valencia Calif.). RNA from fiber-rich tissue was isolated using the RNeasy fibrous tissue kit (Qiagen, Valencia Calif.). RNA quality was assessed using an Agilent 2100 Bioanalyzer (Biotechnology Research and Training Center IUPUI). Reverse transcription was performed using Quantitect Reverse Transcription kit (Qiagen, Valencia Calif.). Presence/absence experiments of endogenous mRNA were performed on a 9700 Applied Biosystems™ cycler. Products were run using Quantitect Sybr Green (Qiagen, Valencia Calif.). Endogenous mRNA levels were measured by real-time quantitative PCR analysis on a STEP-ONE PLUS (Applied Biosystems™, Carlsbad Calif.) real time PCR system and comparative CT analysis was performed. Gene expression assays for porcine ASGR1 and β-actin AI6RMY and SSO 3376160-u1 (Applied Biosystems™, Carlsbad Calif.) were used. […]
as §1

Substance | inhibition of binding of baboon platelets (RFI) (LSEC) | inhibition of binding of human platelets (RFI) (LSEC) | percent of human platelet binding by LSECs [1] | platelet phagocytosis compared to siGenome transfected LSECs (porcine primary LSECs; GTKO/hDAF LSECs) | platelet phagocytosis compared to siGenome transfected LSECs (porcine primary LSECs; domestic LSECs) | ASGR1 protein levels relative to non-specifically treated cells (siGenome) (ASGR1 protein; GTKO/hDAF LSECs) | ASGR1 protein levels relative to non-specifically treated cells (siGenome) (ASGR1 protein; domestic LSECs) | ASGR1 mRNA levels relative to non-specifically treated cells (siGenome) (ASGR1 mRNA; GTKO/hDAF LSECs) | ASGR1 mRNA levels relative to non-specifically treated cells (siGenome) (ASGR1 mRNA; domestic LSECs)
Fetuin | not feutin inhibits binding | not feutin inhibits binding |  |  |  |  |  |  | 
asialofetuin | inhibits binding | inhibits binding | significantly reduced |  |  |  |  |  | 
ASGR1 siRNA: double-stranded siRNA to ASGR1 mRNA; sense strand SEQ ID NO:11, antisense strand SEQ ID NO:12 (sense CAGCAUGCAGGGAGGAAAUUU; antisense AUUUCCUCCCUGCAUGCUGUU; chemistry not given here) |  |  |  | 69% | 79% | 87% | 80% | 20% | 56%
